Source: ChEMBL document CHEMBL3137667, “[Drug-induced liver injury; fourteenth updated edition of the bibliographic database of liver injuries and related drugs]” (Gastroenterol Clin Biol, 2004)

Tests used:
[1] = Comments (NB not yet translated). [column 'COMMENTAIRES' in source]; conditions: human
[2] = human
[3] = Highest frequency of moderate liver toxicity observed during clinical trials, expressed as a percentage. [column '% BIOL' in source]; conditions: human
[4] = Times to onset, minimal and maximal, observed in the indexed observations. [column 'DELAI' in source]; conditions: human
[5] = human; remark: listed apart in the source
[6] = human, serum, 4383 h
[7] = human; remark: listed apart in the source
[8] = human; remark: listed apart in the source
[9] = human; remark: listed apart in the source
[10] = human; remark: listed apart in the source
[11] = human; remark: listed apart in the source
[12] = Highest frequency of acute liver toxicity observed during clinical trials, expressed as a percentage. [column '% AIGUE' in source]; conditions: human
[13] = human; remark: listed apart in the source
[14] = human, serum
[15] = human; remark: listed apart in the source
[16] = human, serum; remark: listed apart in the source
[17] = human; remark: listed apart in the source
[18] = Proposed mechanism(s) of liver damage. [column 'MEC' in source]; conditions: human
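Wherever Hepatotoxicity (association with vascular disease) is given: count of indexed literature references reporting vascular liver injury in humans, e.g. peliosis hepatitis, hepatic veno-occlusive disease or Budd-Chiari syndrome.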
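Wherever Hepatotoxicity (benign tumour) is given: value is a count of indexed literature references citing a benign tumour confirmed by histopathology.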
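Wherever Hepatotoxicity (choleostasis) is given: human cholestatic liver injury, shown by histopathology or by peak ALT or AST elevation over alkaline phosphatase ratio below 2, value counts indexed literature reports.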
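Wherever Hepatotoxicity (chronic liver disease) is given: chronic liver injury confirmed by histopathology or persistently raised serum aminotransferase activity beyond 6 months, value given as the count of indexed literature references.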
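Wherever Hepatotoxicity (cirrhosis) is given: value is a count of indexed literature references reporting cirrhosis confirmed by histopathology.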
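Wherever Hepatotoxicity (cytolytic) is given: human cytolytic liver injury, shown by histopathology or by a ratio above 5 of peak ALT or AST elevation to alkaline phosphatase elevation, value counts indexed references.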
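Wherever Hepatotoxicity (granulomatous hepatitis) is given: value is a count of indexed literature references reporting granulomatous liver disease confirmed by histopathology.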
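Wherever Hepatotoxicity (malignant tumour) is given: malignant tumour confirmed by histopathology, value gives the count of indexed literature references reporting it.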
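Wherever Hepatotoxicity (severe hepatitis) is given: human clinical data: severe hepatitis, meaning potentially life-threatening liver failure or clinically observed cases, the value counts how many indexed literature references report it.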
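Wherever Hepatotoxicity (steatosis) is given: steatosis confirmed by histopathology, value is the count of indexed references.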

Compound: PARAFFIN
- Hepatotoxicity (comment) [1]: LIPOGRANULOMES
- Hepatotoxicity (cirrhosis) [2]: 0
- Hepatotoxicity (moderate) [3]: 0%
- Hepatotoxicity (time to onset) [4]: 10 years
- Hepatotoxicity (steatosis) [5]: 7
- Hepatotoxicity (chronic liver disease) [6]: 0
- Hepatotoxicity (animal toxicity known) [7]: yes
- Hepatotoxicity (severe hepatitis) [8]: 0
- Hepatotoxicity (malignant tumour) [9]: 0
- Hepatotoxicity (granulomatous hepatitis) [10]: 0
- Hepatotoxicity (benign tumour) [11]: 0
- Hepatotoxicity (acute) [12]: 0%
- Hepatotoxicity (choleostasis) [13]: 0
- Hepatotoxicity (moderate) [14]: 0
- Hepatotoxicity (association with vascular disease) [15]: 0
- Hepatotoxicity (acute) [16]: 0
- Hepatotoxicity (cytolytic) [17]: 0

Compound: CCCCNC(=O)NS(=O)(=O)c1ccc(N)cc1 [CARBUTAMIDE]
- Hepatotoxicity (comment) [1]: RC/METAHEXAMIDE
- Hepatotoxicity (cirrhosis) [2]: 0
- Hepatotoxicity (moderate) [3]: 30%
- Hepatotoxicity (time to onset) [4]: 2 weeks - 4 weeks
- Hepatotoxicity (steatosis) [5]: 0
- Hepatotoxicity (chronic liver disease) [6]: 0
- Hepatotoxicity (animal toxicity known) [7]: yes
- Hepatotoxicity (severe hepatitis) [8]: 3
- Hepatotoxicity (malignant tumour) [9]: 0
- Hepatotoxicity (granulomatous hepatitis) [10]: 0
- Hepatotoxicity (benign tumour) [11]: 0
- Hepatotoxicity (acute) [12]: 1.5%
- Hepatotoxicity (choleostasis) [13]: 0
- Hepatotoxicity (moderate) [14]: 1
- Hepatotoxicity (association with vascular disease) [15]: 0
- Hepatotoxicity (acute) [16]: 5
- Hepatotoxicity (cytolytic) [17]: 1

Compound: COc1cc(NC(C)CCCN)c2ncccc2c1 (stereo unspecified) [PRIMAQUINE]
- Hepatotoxicity (cirrhosis) [2]: 0
- Hepatotoxicity (moderate) [3]: 0%
- Hepatotoxicity (time to onset) [4]: 2 days
- Hepatotoxicity (steatosis) [5]: 0
- Hepatotoxicity (chronic liver disease) [6]: 0
- Hepatotoxicity (animal toxicity known) [7]: yes
- Hepatotoxicity (severe hepatitis) [8]: 0
- Hepatotoxicity (malignant tumour) [9]: 0
- Hepatotoxicity (granulomatous hepatitis) [10]: 0
- Hepatotoxicity (benign tumour) [11]: 0
- Hepatotoxicity (acute) [12]: 0%
- Hepatotoxicity (mechanism) [18]: Overdose
- Hepatotoxicity (choleostasis) [13]: 0
- Hepatotoxicity (moderate) [14]: 0
- Hepatotoxicity (association with vascular disease) [15]: 0
- Hepatotoxicity (acute) [16]: 1
- Hepatotoxicity (cytolytic) [17]: 1

Compound: C=CC[C@@H]1/C=C(\C)C[C@H](C)C[C@H](OC)[C@H]2O[C@@](O)(C(=O)C(=O)N3CCCC[C@H]3C(=O)O[C@H](/C(C)=C/[C@@H]3CC[C@@H](O)[C@H](OC)C3)[C@H](C)[C@@H](O)CC1=O)[C@H](C)C[C@@H]2OC [TACROLIMUS ANHYDROUS]
- Hepatotoxicity (comment) [1]: MVO PELIOSE
- Hepatotoxicity (cirrhosis) [2]: 0
- Hepatotoxicity (moderate) [3]: 37%
- Hepatotoxicity (time to onset) [4]: 1 month - 3 months
- Hepatotoxicity (steatosis) [5]: 0
- Hepatotoxicity (chronic liver disease) [6]: 0
- Hepatotoxicity (animal toxicity known) [7]: yes
- Hepatotoxicity (severe hepatitis) [8]: 0
- Hepatotoxicity (malignant tumour) [9]: 0
- Hepatotoxicity (granulomatous hepatitis) [10]: 0
- Hepatotoxicity (benign tumour) [11]: 0
- Hepatotoxicity (acute) [12]: 0%
- Hepatotoxicity (choleostasis) [13]: 0
- Hepatotoxicity (moderate) [14]: 1
- Hepatotoxicity (association with vascular disease) [15]: 2
- Hepatotoxicity (acute) [16]: 0
- Hepatotoxicity (cytolytic) [17]: 0

Compound: C[C@@H](CN1CC(=O)NC(=O)C1)N1CC(=O)NC(=O)C1 [DEXRAZOXANE]
- Hepatotoxicity (cirrhosis) [2]: 0
- Hepatotoxicity (moderate) [3]: 13%
- Hepatotoxicity (time to onset) [4]: 1 week
- Hepatotoxicity (steatosis) [5]: 0
- Hepatotoxicity (chronic liver disease) [6]: 0
- Hepatotoxicity (animal toxicity known) [7]: yes
- Hepatotoxicity (severe hepatitis) [8]: 0
- Hepatotoxicity (malignant tumour) [9]: 0
- Hepatotoxicity (granulomatous hepatitis) [10]: 0
- Hepatotoxicity (benign tumour) [11]: 0
- Hepatotoxicity (acute) [12]: 0%
- Hepatotoxicity (mechanism) [18]: Dose-dependant
- Hepatotoxicity (choleostasis) [13]: 0
- Hepatotoxicity (moderate) [14]: 3
- Hepatotoxicity (association with vascular disease) [15]: 0
- Hepatotoxicity (acute) [16]: 0
- Hepatotoxicity (cytolytic) [17]: 0

Compound: COc1cc2c(c(OC)c1OC)-c1ccc(OC)c(=O)cc1[C@@H](NC(C)=O)CC2 [COLCHICINE]
- Hepatotoxicity (cirrhosis) [2]: 0
- Hepatotoxicity (moderate) [3]: 28.6%
- Hepatotoxicity (time to onset) [4]: 2 hours - 2 days
- Hepatotoxicity (steatosis) [5]: 0
- Hepatotoxicity (chronic liver disease) [6]: 0
- Hepatotoxicity (animal toxicity known) [7]: yes
- Hepatotoxicity (severe hepatitis) [8]: 0
- Hepatotoxicity (malignant tumour) [9]: 0
- Hepatotoxicity (granulomatous hepatitis) [10]: 0
- Hepatotoxicity (benign tumour) [11]: 0
- Hepatotoxicity (acute) [12]: 0%
- Hepatotoxicity (mechanism) [18]: Overdose
- Hepatotoxicity (choleostasis) [13]: 0
- Hepatotoxicity (moderate) [14]: 2
- Hepatotoxicity (association with vascular disease) [15]: 0
- Hepatotoxicity (acute) [16]: 7
- Hepatotoxicity (cytolytic) [17]: 3

Compound: BLEOMYCIN
- Hepatotoxicity (comment) [1]: HYPERBILIRUBINEMIE
- Hepatotoxicity (cirrhosis) [2]: 0
- Hepatotoxicity (moderate) [3]: 0%
- Hepatotoxicity (steatosis) [5]: 0
- Hepatotoxicity (chronic liver disease) [6]: 0
- Hepatotoxicity (animal toxicity known) [7]: yes
- Hepatotoxicity (severe hepatitis) [8]: 0
- Hepatotoxicity (malignant tumour) [9]: 0
- Hepatotoxicity (granulomatous hepatitis) [10]: 0
- Hepatotoxicity (benign tumour) [11]: 0
- Hepatotoxicity (acute) [12]: 0%
- Hepatotoxicity (choleostasis) [13]: 0
- Hepatotoxicity (moderate) [14]: 1
- Hepatotoxicity (association with vascular disease) [15]: 0
- Hepatotoxicity (acute) [16]: 0
- Hepatotoxicity (cytolytic) [17]: 0

Compound: ClC=C(Cl)Cl [TRICHLOROETHYLENE]
- Hepatotoxicity (cirrhosis) [2]: 2
- Hepatotoxicity (moderate) [3]: 0%
- Hepatotoxicity (time to onset) [4]: 1 day - 6 weeks
- Hepatotoxicity (steatosis) [5]: 0
- Hepatotoxicity (chronic liver disease) [6]: 0
- Hepatotoxicity (animal toxicity known) [7]: yes
- Hepatotoxicity (severe hepatitis) [8]: 14
- Hepatotoxicity (malignant tumour) [9]: 0
- Hepatotoxicity (granulomatous hepatitis) [10]: 0
- Hepatotoxicity (benign tumour) [11]: 0
- Hepatotoxicity (acute) [12]: 0%
- Hepatotoxicity (mechanism) [18]: Toxic Metabolite
- Hepatotoxicity (choleostasis) [13]: 0
- Hepatotoxicity (moderate) [14]: 1
- Hepatotoxicity (association with vascular disease) [15]: 0
- Hepatotoxicity (acute) [16]: 14
- Hepatotoxicity (cytolytic) [17]: 14

Compound: CCC[C@@H]1C[C@@H](C(=O)N[C@@H]([C@H]2O[C@H](SC)[C@H](O)[C@@H](O)[C@H]2O)[C@H](C)Cl)N(C)C1 [CLINDAMYCIN]
- Hepatotoxicity (comment) [1]: #CBP
- Hepatotoxicity (cirrhosis) [2]: 0
- Hepatotoxicity (moderate) [3]: 52%
- Hepatotoxicity (time to onset) [4]: 2 days - 17 days
- Hepatotoxicity (steatosis) [5]: 0
- Hepatotoxicity (chronic liver disease) [6]: 1
- Hepatotoxicity (animal toxicity known) [7]: yes
- Hepatotoxicity (severe hepatitis) [8]: 0
- Hepatotoxicity (malignant tumour) [9]: 0
- Hepatotoxicity (granulomatous hepatitis) [10]: 1
- Hepatotoxicity (benign tumour) [11]: 0
- Hepatotoxicity (acute) [12]: 0%
- Hepatotoxicity (choleostasis) [13]: 1
- Hepatotoxicity (moderate) [14]: 15
- Hepatotoxicity (acute) [16]: 5
- Hepatotoxicity (cytolytic) [17]: 2
